{"source": "paper PMC12649549", "about": "“Sequence Permutation Generated Lysine and Tryptophan-Rich Antimicrobial Peptides with Enhanced Therapeutic Index” (Antibiotics, 2025)", "key": {"S. aureus ATCC 33593": {"system": "S. aureus ATCC 33593", "procedure,_shortened": "(§1)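 Broth microdilution per CLSI in Müller-Hinton broth and modified LYM broth (pH 7.4; variants with 50–300 mM NaCl, 0.5–2.5 mM MgCl2, or pH 6.5–4.5). Inoculum 5 × 10^5 CFU/mL; peptides tested at 0.78–50 µg/mL final. MIC read; three independent repeats.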"}, "[1]": {"system": "A. baumannii 14B0097 (Acinetobacter sp., BCRC number 14B0097)", "procedure,_shortened": "as §1"}, "S. aureus ATCC 25923": {"system": "S. aureus ATCC 25923", "procedure,_shortened": "as §1"}, "S. aureus ATCC 33591": {"system": "S. aureus ATCC 33591", "procedure,_shortened": "as §1"}, "[2]": {"system": "Escherichia coli (ATCC 25922)", "procedure,_shortened": "as §1"}, "[3]": {"system": "A. baumannii 14B0091 (Acinetobacter sp., BCRC number 14B0091)", "procedure,_shortened": "as §1"}, "[4]": {"system": "Both Gram-positive and -negative bacteria", "test": "Geometric mean MIC, therapeutic index and fold changes of MIC, whole panel of strains", "assay_type": "cell-based", "procedure,_shortened": "(§2)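 CLSI broth microdilution in MH broth or modified LYM broth (pH 7.4, varied NaCl, MgCl2, pH), 5 × 10^5 CFU/mL, peptides 0.78–50 µg/mL; three independent repeats.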"}, "Gram-positive bacteria": {"system": "Gram-positive bacteria", "test": "Geometric mean MIC and therapeutic index, Gram-positive bacteria", "assay_type": "cell-based", "details": "Gram-positive bacteria", "procedure,_shortened": "as §2"}, "[5]": {"details": "LYM broth, 0 mM NaCl, 16 h, 37 °C"}, "[6]": {"details": "LYM broth, 50 mM NaCl, 16 h, 37 °C"}, "[7]": {"details": "LYM broth, 100 mM NaCl, 16 h, 37 °C"}, "[8]": {"details": "LYM broth, 200 mM (NaCl), 16 h, 37 °C"}, "[9]": {"details": "LYM broth, 300 mM (NaCl), 16 h, 37 °C"}, "[10]": {"details": "MH broth, 5 × 10^5 CFU/mL, 16 h, 37 °C, repeated three times"}}, "note": "Read-outs that look alike come from different tables or passages of the source."}
{"substance": "Ac-KWRKWLKWLAKKK-NH2 [Peptide W5K01]", "values": [{"measurement": "MIC", "setting": "S. aureus ATCC 33593; [5]", "value": 6.25, "unit": "µg/mL"}, {"measurement": "MIC", "setting": "S. aureus ATCC 33593; LYM broth, 0.5 mM MgCl2", "value": 6.25, "unit": "µg/mL"}, {"measurement": "MIC", "setting": "S. aureus ATCC 33593; LYM broth, 1.5 mM MgCl2", "value": 6.25, "unit": "µg/mL"}, {"measurement": "MIC", "setting": "S. aureus ATCC 33593; LYM broth, 2.5 mM MgCl2", "value": 6.25, "unit": "µg/mL"}, {"measurement": "MIC", "setting": "S. aureus ATCC 33593; [6]", "value": 6.25, "unit": "µg/mL"}, {"measurement": "MIC", "setting": "S. aureus ATCC 33593; [7]", "value": 12.5, "unit": "µg/mL"}, {"measurement": "MIC", "setting": "S. aureus ATCC 33593; [8]", "value": 25, "unit": "µg/mL"}, {"measurement": "MIC", "setting": "S. aureus ATCC 33593; [9]", "value": 50, "unit": "µg/mL"}, {"measurement": "MIC", "setting": "S. aureus ATCC 33593; LYM broth, pH 4.5", "value": 6.25, "unit": "µg/mL"}, {"measurement": "MIC", "setting": "S. aureus ATCC 33593; LYM broth, pH 5.5", "value": 3.13, "unit": "µg/mL"}, {"measurement": "MIC", "setting": "S. aureus ATCC 33593; LYM broth, pH 6.5", "value": 3.13, "unit": "µg/mL"}, {"measurement": "MIC", "setting": "S. aureus ATCC 33593; [10]", "value": 50, "unit": "µg/mL"}, {"measurement": "MIC", "setting": "[1]; [5]", "value": 1.56, "unit": "µg/mL"}, {"measurement": "MIC", "setting": "[1]; LYM broth, 0.5 mM MgCl2", "value": 1.56, "unit": "µg/mL"}, {"measurement": "MIC", "setting": "[1]; LYM broth, 1.5 mM MgCl2", "value": 3.13, "unit": "µg/mL"}, {"measurement": "MIC", "setting": "[1]; LYM broth, 2.5 mM MgCl2", "value": 3.13, "unit": "µg/mL"}, {"measurement": "MIC", "setting": "[1]; [6]", "value": 1.56, "unit": "µg/mL"}, {"measurement": "MIC", "setting": "[1]; [7]", "value": 3.13, "unit": "µg/mL"}, {"measurement": "MIC", "setting": "[1]; [8]", "value": 3.13, "unit": "µg/mL"}, {"measurement": "MIC", "setting": "[1]; [9]", "value": 12.5, "unit": "µg/mL"}, {"measurement": "MIC", "setting": "[1]; LYM broth, pH 4.5", "value": 3.13, "unit": "µg/mL"}, {"measurement": "MIC", "setting": "[1]; LYM broth, pH 5.5", "value": 3.13, "unit": "µg/mL"}, {"measurement": "MIC", "setting": "[1]; LYM broth, pH 6.5", "value": 1.56, "unit": "µg/mL"}, {"measurement": "MIC", "setting": "[1]; [10]", "value": 6.25, "unit": "µg/mL"}, {"measurement": "MIC", "setting": "S. aureus ATCC 25923; [5]", "value": 3.13, "unit": "µg/mL"}, {"measurement": "MIC", "setting": "S. aureus ATCC 25923; LYM broth, 0.5 mM MgCl2", "value": 3.13, "unit": "µg/mL"}, {"measurement": "MIC", "setting": "S. aureus ATCC 25923; LYM broth, 1.5 mM MgCl2", "value": 6.25, "unit": "µg/mL"}, {"measurement": "MIC", "setting": "S. aureus ATCC 25923; LYM broth, 2.5 mM MgCl2", "value": 6.25, "unit": "µg/mL"}, {"measurement": "MIC", "setting": "S. aureus ATCC 25923; [6]", "value": 6.25, "unit": "µg/mL"}, {"measurement": "MIC", "setting": "S. aureus ATCC 25923; [7]", "value": 12.5, "unit": "µg/mL"}, {"measurement": "MIC", "setting": "S. aureus ATCC 25923; [8]", "value": 50, "unit": "µg/mL"}, {"measurement": "MIC", "setting": "S. aureus ATCC 25923; [9]", "value": ">50", "unit": "µg/mL"}, {"measurement": "MIC", "setting": "S. aureus ATCC 25923; LYM broth, pH 4.5", "value": 3.13, "unit": "µg/mL"}, {"measurement": "MIC", "setting": "S. aureus ATCC 25923; LYM broth, pH 5.5", "value": 3.13, "unit": "µg/mL"}, {"measurement": "MIC", "setting": "S. aureus ATCC 25923; LYM broth, pH 6.5", "value": 1.56, "unit": "µg/mL"}, {"measurement": "MIC", "setting": "S. aureus ATCC 25923; [10]", "value": 12.5, "unit": "µg/mL"}, {"measurement": "MIC", "setting": "S. aureus ATCC 33591; [5]", "value": 6.25, "unit": "µg/mL"}, {"measurement": "MIC", "setting": "S. aureus ATCC 33591; LYM broth, 0.5 mM MgCl2", "value": 6.25, "unit": "µg/mL"}, {"measurement": "MIC", "setting": "S. aureus ATCC 33591; LYM broth, 1.5 mM MgCl2", "value": 6.25, "unit": "µg/mL"}, {"measurement": "MIC", "setting": "S. aureus ATCC 33591; LYM broth, 2.5 mM MgCl2", "value": 6.25, "unit": "µg/mL"}, {"measurement": "MIC", "setting": "S. aureus ATCC 33591; [6]", "value": 12.5, "unit": "µg/mL"}, {"measurement": "MIC", "setting": "S. aureus ATCC 33591; [7]", "value": 12.5, "unit": "µg/mL"}, {"measurement": "MIC", "setting": "S. aureus ATCC 33591; [8]", "value": 25, "unit": "µg/mL"}, {"measurement": "MIC", "setting": "S. aureus ATCC 33591; [9]", "value": 50, "unit": "µg/mL"}, {"measurement": "MIC", "setting": "S. aureus ATCC 33591; LYM broth, pH 4.5", "value": 6.25, "unit": "µg/mL"}, {"measurement": "MIC", "setting": "S. aureus ATCC 33591; LYM broth, pH 5.5", "value": 6.25, "unit": "µg/mL"}, {"measurement": "MIC", "setting": "S. aureus ATCC 33591; LYM broth, pH 6.5", "value": 3.13, "unit": "µg/mL"}, {"measurement": "MIC", "setting": "S. aureus ATCC 33591; [10]", "value": 50, "unit": "µg/mL"}, {"measurement": "MIC", "setting": "[2]; [5]", "value": 3.13, "unit": "µg/mL"}, {"measurement": "MIC", "setting": "[2]; LYM broth, 0.5 mM MgCl2", "value": 6.25, "unit": "µg/mL"}, {"measurement": "MIC", "setting": "[2]; LYM broth, 1.5 mM MgCl2", "value": 6.25, "unit": "µg/mL"}, {"measurement": "MIC", "setting": "[2]; LYM broth, 2.5 mM MgCl2", "value": 12.5, "unit": "µg/mL"}, {"measurement": "MIC", "setting": "[2]; [6]", "value": 6.25, "unit": "µg/mL"}, {"measurement": "MIC", "setting": "[2]; [7]", "value": 25, "unit": "µg/mL"}, {"measurement": "MIC", "setting": "[2]; [8]", "value": ">50", "unit": "µg/mL"}, {"measurement": "MIC", "setting": "[2]; [9]", "value": ">50", "unit": "µg/mL"}, {"measurement": "MIC", "setting": "[2]; LYM broth, pH 4.5", "value": 3.13, "unit": "µg/mL"}, {"measurement": "MIC", "setting": "[2]; LYM broth, pH 5.5", "value": 3.13, "unit": "µg/mL"}, {"measurement": "MIC", "setting": "[2]; LYM broth, pH 6.5", "value": 3.13, "unit": "µg/mL"}, {"measurement": "MIC", "setting": "[2]; [10]", "value": 12.5, "unit": "µg/mL"}, {"measurement": "MIC", "setting": "[3]; [5]", "value": 1.56, "unit": "µg/mL"}, {"measurement": "MIC", "setting": "[3]; LYM broth, 0.5 mM MgCl2", "value": 1.56, "unit": "µg/mL"}, {"measurement": "MIC", "setting": "[3]; LYM broth, 1.5 mM MgCl2", "value": 1.56, "unit": "µg/mL"}, {"measurement": "MIC", "setting": "[3]; LYM broth, 2.5 mM MgCl2", "value": 3.13, "unit": "µg/mL"}, {"measurement": "MIC", "setting": "[3]; [6]", "value": 3.13, "unit": "µg/mL"}, {"measurement": "MIC", "setting": "[3]; [7]", "value": 3.13, "unit": "µg/mL"}, {"measurement": "MIC", "setting": "[3]; [8]", "value": 3.13, "unit": "µg/mL"}, {"measurement": "MIC", "setting": "[3]; [9]", "value": 12.5, "unit": "µg/mL"}, {"measurement": "MIC", "setting": "[3]; LYM broth, pH 4.5", "value": 1.56, "unit": "µg/mL"}, {"measurement": "MIC", "setting": "[3]; LYM broth, pH 5.5", "value": 1.56, "unit": "µg/mL"}, {"measurement": "MIC", "setting": "[3]; LYM broth, pH 6.5", "value": 1.56, "unit": "µg/mL"}, {"measurement": "MIC", "setting": "[3]; [10]", "value": 6.25, "unit": "µg/mL"}, {"measurement": "GM G−/+ (geometric mean of the MIC values)", "setting": "[4]; Both Gram-positive and -negative bacteria, MH broth, MIC >50 µg/mL counted as 100 µg/mL", "value": 15.4, "unit": "µg/mL"}, {"measurement": "Therapeutic Index (TI) G−/+", "setting": "[4]; HC10/GM, both Gram-positive and -negative bacteria", "value": 4.6}, {"measurement": "weakening of bactericidal efficacy (MIC)", "setting": "[4]; LYM broth, 2.5 mM MgCl2", "value": 4, "unit": "fold"}, {"measurement": "folds higher MIC values than W5KA9W", "setting": "[4]; MH broth, in most bacteria strains", "value": "2–4 fold"}, {"measurement": "GM G+ (geometric mean of the MIC values)", "setting": "Gram-positive bacteria; MH broth, MIC >50 µg/mL counted as 100 µg/mL", "value": 28.7, "unit": "µg/mL"}, {"measurement": "Therapeutic Index (TI) G+", "setting": "Gram-positive bacteria; HC10/GM", "value": 2.5}]}
